Test results: patent publication EP0360258B1, “Amino acid quinoline and naphthyridine derivatives” (ABBOTT LABORATORIES, priority 1988, dated 1990)
≈ marks a conversion by molar mass, not a printed value. Counter-ions that a name gives are not always drawn. Like-named read-outs stand apart in the source and are kept apart here.

Columns and labels:
[1] = system: ESCHERICHIA COLI DC-2; test: In vitro antibacterial activity, agar dilution MIC (BHIA); assay type: cell-based; details: 18 h
[2] = system: ACINETOBACTER SP CMX 669; test: as above; assay type: cell-based; details: 18 h
[3] = system: ESCHERICHIA COLI H560; test: as above; assay type: cell-based; details: 18 h
[4] = system: STREPTOCOCCUS PYOGENES 930 CONST; test: as above; assay type: cell-based; details: 18 h
[5] = system: STR[…] 2548 INDUC; test: as above; assay type: cell-based; details: Streptococcus pyogenes, 18 h
[6] = system: PROVIDENCIA STUARTII CMX 640; test: as above; assay type: cell-based; details: 18 h
[7] = system: ESCHERICHIA COLI KNK 437; test: as above; assay type: cell-based; details: Brain Heart Infusion Agar (BHIA), 36° C, 18 h, strain KNK 437
[8] = system: EN[…] ATCC 8043; test: as above; assay type: cell-based; details: Enterococcus faecium, ATCC8043, 18 h
Source text: (§1) The MIC results are in ug/ml. TABLE VII

[9] = system: STR[…] 508; test: as above; assay type: cell-based; details: Streptococcus agalactiae, 18 h
Source text: as §1

[10] = system: M[…] ATCC 9341; test: as above; assay type: cell-based; details: Micrococcus luteus, ATCC9341, 18 h
Source text: as §1

[11] = system: P[…] 296I; test: as above; assay type: cell-based; details: Burkholderia cepacia, 18 h
Source text: as §1

[12] = system: M[…] ATCC 4698; test: as above; assay type: cell-based; details: Micrococcus luteus, ATCC4698, 18 h
Source text: as §1

[13] = system: STR[…] EES61; test: as above; assay type: cell-based; details: Streptococcus pyogenes, 18 h
Source text: as §1

[14] = system: PSEUDOMONAS AERUGINOSA K799/WT; test: as above; assay type: cell-based; details: Brain Heart Infusion Agar (BHIA), 36° C, 18 h, strain K799/WT
Source text: as §1

[15] = system: ESCHERICHIA COLI JUHL; test: as above; assay type: cell-based; details: 18 h
[16] = system: STREPTOCOCCUS BOVIS A5169; test: as above; assay type: cell-based; details: Streptococcus equinus, 18 h
[17] = system: ENTEROBACTER AEROGENES ATCC 13048; test: as above; assay type: cell-based; details: Klebsiella aerogenes
[18] = physchem
[19] = system: ESCHERICHIA COLI SS; test: In vitro antibacterial activity, agar dilution MIC (BHIA); assay type: cell-based; details: Brain Heart Infusion Agar (BHIA), 36° C, 18 h, strain SS
[20] = system: KLEBSIELLA PNEUMONIAE ATCC 8045; test: as above; assay type: cell-based
[21] = system: PSEUDOMONAS AERUGINOSA K799/61; test: as above; assay type: cell-based; details: Brain Heart Infusion Agar (BHIA), 36° C, 18 h, strain K799/61
[22] = system: PSEUDOMONAS AERUGINOSA BMH10; test: as above; assay type: cell-based; details: 18 h
[23] = system: PSEUDOMONAS AERUGINOSA A5007; test: as above; assay type: cell-based; details: Brain Heart Infusion Agar (BHIA), 36° C, 18 h, strain A5007
Source text: as §1

[24] = Plasma level in dog after oral dose; assay type: in vivo; details: 10 mg/kg, 10 mg equivalent/kg oral dose, HPLC
Source text: The plasma samples were collected and determined by the HPLC analysis.

[25] = Brain Heart Infusion Agar (BHIA), 36° C, strain CMX 640, read-out: MIC
[26] = Brain Heart Infusion Agar (BHIA), 36° C, strain A5169, read-out: MIC
[27] = ATCC13048, Brain Heart Infusion Agar (BHIA), 36° C, 18 h, strain ATCC 13048, read-out: MIC
[28] = Brain Heart Infusion Agar (BHIA), 36° C, strain BMH10, read-out: MIC
[29] = ATCC8045, Brain Heart Infusion Agar (BHIA), 36° C, 18 h, strain ATCC 8045, read-out: MIC
[30] = Brain Heart Infusion Agar (BHIA), 36° C, strain CMX 669, read-out: MIC
[31] = Brain Heart Infusion Agar (BHIA), 36° C, strain JUHL, read-out: MIC

Row | Structure (SMILES) | MIC [2] [µg/mL] | MIC [4] [µg/mL] | MIC [5] [µg/mL] | MIC [6, 25] [µg/mL] | MIC [7] [µg/mL] | MIC [8] [µg/mL] | MIC [9] [µg/mL] | MIC [10] [µg/mL] | MIC [11] [µg/mL] | MIC [12] [µg/mL] | MIC [13] [µg/mL] | MIC [14] [µg/mL] | MIC [17, 27] [µg/mL] | solubility ([18]; pH 7.4) [µg/mL] | solubility ([18]; water) [µg/mL] | MIC [19] [µg/mL] | MIC [21] [µg/mL] | MIC [22, 28] [µg/mL] | MIC [1] [µg/mL] | MIC [20, 29] [µg/mL] | other results
1 | CC(N)C(=O)NC(C)C(=O)NC1CCN(c2nc3c(cc2F)c(=O)c(C(=O)O)cn3-c2ccc(F)cc2F)C1 (centres unmarked) [Example 15] | 12.5 (≈ 22.9 µM) | 12.5 (≈ 22.9 µM) | 12.5 (≈ 22.9 µM) | 100 (≈ 183 µM) | 50 (≈ 91.5 µM) | 50 (≈ 91.5 µM) | 12.5 (≈ 22.9 µM) | > 100 | 50 (≈ 91.5 µM) | 100 (≈ 183 µM) | 12.5 (≈ 22.9 µM) | 50 (≈ 91.5 µM) | 25 (≈ 45.7 µM) | 1070 (≈ 1960 µM) | > 70000 | 0.39 (≈ 0.714 µM) | 3.1 (≈ 5.67 µM) | 100 (≈ 183 µM) | – | – | MIC ([1]; Brain Heart Infusion Agar (BHIA), 36° C, strain DC-2, read-out: MIC): 100 µg/mL (≈ 183 µM); MIC ([3]; Brain Heart Infusion Agar (BHIA), 36° C, strain H560, read-out: MIC): 6.2 µg/mL (≈ 11.3 µM); MIC [15]: 12.5 µg/mL (≈ 22.9 µM); MIC [16, 26]: 50 µg/mL (≈ 91.5 µM); MIC ([20]; ATCC8045, 18 h): 12.5 µg/mL (≈ 22.9 µM)
2 | NC(Cc1ccccc1)C(=O)NC1CCN(c2nc3c(cc2F)c(=O)c(C(=O)O)cn3-c2ccc(F)cc2F)C1 (centres unmarked) [Example 5] | 12.5 (≈ 22.7 µM) | – | 0.78 (≈ 1.41 µM) | > 100 | 100 (≈ 181 µM) | 3.1 (≈ 5.62 µM) | 3.1 (≈ 5.62 µM) | 25 (≈ 45.3 µM) | > 100 | 12.5 (≈ 22.7 µM) | 3.1 (≈ 5.62 µM) | 25 (≈ 45.3 µM) | – | 340 (≈ 616 µM) | > 101000 | 0.1 (≈ 0.181 µM) | 1.56 (≈ 2.83 µM) | – | 50 (≈ 90.7 µM) | 1.56 (≈ 2.83 µM) | MIC [3]: 3.1 µg/mL (≈ 5.62 µM); MIC ([4]; Brain Heart Infusion Agar (BHIA), 36° C, strain 930 CONST, read-out: MIC): 1.56 µg/mL (≈ 2.83 µM); MIC [23]: 50 µg/mL (≈ 90.7 µM); MIC [15]: 3.1 µg/mL (≈ 5.62 µM); MIC [16, 26]: 6.2 µg/mL (≈ 11.2 µM); MIC ([17]; ATCC13048, 18 h): 12.5 µg/mL (≈ 22.7 µM); MIC [22]: 25 µg/mL (≈ 45.3 µM)
3 | NCC(=O)N[C@@H](Cc1ccccc1)C(=O)NC1CCN(c2nc3c(cc2F)c(=O)c(C(=O)O)cn3-c2ccc(F)cc2F)C1 (stereo partly drawn) [Example 1b, 7-[(3-Gly-L-Phe-amino)-1-pyrrolidinyl]-1-(2,4-difluorophenyl)-6-fluoro-1,4-dihydro-4-oxo-1,8-naphthyridine-3-carboxylic acid hydrochloride] | – | 0.78 | 0.78 | – | 25 | 1.56 | 1.56 | 6.25 | 50 | 0.78 | 1.56 | – | 12.5 | 1040 | > 98000 | 0.2 | 12.5 | 25 | 100 | 12.5 | MIC [2, 30]: 12.5 µg/mL; MIC [3]: 1.56 µg/mL; MIC [6]: 100 µg/mL; MIC [15, 31]: 3.12 µg/mL; MIC [16]: 1.56 µg/mL
4 | NC1CCN(c2nc3c(cc2F)c(=O)c(C(=O)O)cn3-c2ccc(F)cc2F)C1 (centres unmarked) [tosufloxacin, 7-(3-amino-1-pyrrolidinyl)-6-fluoro,1-(2,4-difluorophenyl)-1,4-dihydro-4-oxo-1,8-naphthyridine-3-carboxylic acid, reference compound] | – | – | 0.1 (≈ 0.247 µM) | – | – | – | 0.39 (≈ 0.965 µM) | – | – | – | – | – | 0.05 (≈ 0.124 µM) | 10 (≈ 24.7 µM) | 650 (≈ 1610 µM) | 0.005 (≈ 0.0124 µM) | – | 0.1 (≈ 0.247 µM) | 0.39 (≈ 0.965 µM) | 0.02 (≈ 0.0495 µM) | MIC [2, 30]: 0.1 µg/mL (≈ 0.247 µM); MIC [15, 31]: 0.02 µg/mL (≈ 0.0495 µM); MIC [16]: 0.39 µg/mL (≈ 0.965 µM); AUC(0-t) at 32 h [24]: 5300 ng·h/mL; Cmax ([24]; read-out: C max (range)): 670 ng/mL
